Data set [1] is classed as in vivo. To be noted: all species (rat, dog, monkey).
The nature of data set [2]: in vivo. Conditions: dog, po, 2 mg/kg.
The nature of data set [3]: in vivo. Conditions: monkey, iv.
The format of data set [4] is in vitro ADME. To be noted: rat.
The format of data set [5] is in vitro ADME. Conditions: monkey.
Data set [6] is classed as in vitro ADME. To be noted: human.

Like-named read-outs stand apart in the source and are kept apart here.

As usually defined, the Cmax is the maximum level reached in the sampled fluid or tissue. The term clearance denotes the rate of elimination divided by the concentration.

In the case of `O=C(N[C@H]1CCc2cc(F)cc(F)c2NC1=O)c1n[nH]c(Cc2ccccc2)n1` [Compound 6, (S)-5-benzyl-N-(7,9-difluoro-2-oxo-2,3,4,5-tetrahydro-1H-benzo[b]azepin-3-yl)-1H-1,2,4-triazole-3-carboxamide], the predicted human clearance entry is given as “low clearance” and the predicted human volume entry is reported as “moderate volume”. For the same compound, the “clearance as % liver blood flow” value in data set [1] was no more than 35 % liver blood flow. Besides, the Cmax in the data set “in vivo [2]” is 910 ± 130 ng/mL. This compound also had a clearance in “in vivo [3]” of 6.4 ± 0.5 mL/min/kg. For the same compound, in data set [4], the turnover in hepatocytes entry is recorded as “moderate turnover”. Further, the turnover in hepatocytes entry in data set [5] is recorded as “low turnover”. Besides, the turnover in hepatocytes result in data set [6] was “low turnover”. Moreover, the “predicted human AUC” value (40 mg twice daily) is 1.7 µg·h/mL. In addition, the “predicted human AUC” value (273 mg daily) was 11.7 µg·h/mL. Besides, where the note is “human”, the “predicted human terminal half-life” value is roughly 3.3 h.

Source of the values: publication PMC6580371 (ACS Medicinal Chemistry Letters, 2019).
